Assay results: US20250011881A1, “MYC-HSF1 DUAL AMPLIFICATION AS A BIOMARKER FOR CANCER TREATMENT” (The Trustees of Indiana University, priority 2023, published 2025)
Several values for one entry are separate records, joined by “and”; a condition that tells them apart may be missing. Equal entries are not always repeated. Structures can show the parent of a compound that is named as a salt. Where two headings read alike, the source gives them in different places.

Test system: ovarian cancer cells with (OVCAR8, OVCAR4) or without (OVSAHO, CAOV3) MYC-HSF1 amplification
Experiment: Epigenetic inhibitor drug screen, cell viability (Cell Titer Blue)
Assay type: cell-based
[1] = 10 uM, 48 hrs, average relative cell viability (vs 1% DMSO) of non-amplified cells (OVSAHO, CAOV3) minus that of MYC-HSF1 amplified cells (OVCAR8, OVCAR4), positive = greater response in amplified cells, 10 µM
[2] = 10 uM, 48 hrs, average relative cell viability (vs 1% DMSO) of non-amplified cells (OVSAHO, CAOV3) minus that of MYC-HSF1 amplified cells (OVCAR8, OVCAR4), positive = greater response in amplified cells

Compound	Non Amp - AMP (POC) 10 uM [1]	Non Amp - AMP (POC) 10 uM [2] [POC]	also measured
CCNC(=O)C[C@@H]1N=C(c2ccc(Cl)cc2)c2cc(OC)ccc2-n2c(C)nnc21 [I-BET-762]	5.52 POC		Non Amp - AMP (POC) 10 uM (10 uM, 48 hrs, average relative cell viability (vs 1% DMSO) of non-amplified cells (OVSAHO, CAOV3) minus that of MYC-HSF1 amplified cells (OVCAR8, OVCAR4), positive = greater response in amplified cells, listed as I-BET762, 10 µM): −1.572 POC
CCC(=O)N1CCOc2c(cc(-c3ccc(OC)c(OC)c3)cc2OC[C@H]2CCCN(C)C2)C1 [I-CBP112 (hydrochloride)]		20.48	
O=c1[nH]cnc2c1ncn2[C@@H]1O[C@H](CO)[C@@H](O)[C@H]1O [INO-1001]		−1.319	
O=C(O)c1ccc(O)c2ncccc12 [IOX1]	11.45 POC		Non Amp - AMP (POC) 10 uM (10 uM, 48 hrs, average relative cell viability (vs 1% DMSO) of non-amplified cells (OVSAHO, CAOV3) minus that of MYC-HSF1 amplified cells (OVCAR8, OVCAR4), positive = greater response in amplified cells, listed as IOX 1, 10 µM): 2.198 POC
O=C(O)CNC(=O)c1c(O)c2ccccc2n(Cc2ccccc2)c1=O [IOX2(Glycine)]		10.17	
CCN(CC)Cc1ccc2cc(COC(=O)Nc3ccc(C(=O)NO)cc3)ccc2c1 [ITF 2357, Givinostat]	40.35 POC		Non Amp - AMP (POC) 10 uM (10 uM, 48 hrs, average relative cell viability (vs 1% DMSO) of non-amplified cells (OVSAHO, CAOV3) minus that of MYC-HSF1 amplified cells (OVCAR8, OVCAR4), positive = greater response in amplified cells, listed as ITF2357 (Givinostat), 10 µM): 13.67 POC
O=C(Nn1nnc2ccccc21)c1ccc(Cl)cc1Cl [ITSA-1 (ITSA1)]		7.283	
NC(=O)c1ccc(I)c([N+](=O)[O-])c1 [Iniparib (BSI-201), Iniparib]		−7.53	
COc1cc2ncnc(Nc3ccc(O)cc3)c2cc1OC [JANEX-1]		−13.67	
O=C(NCc1ccccc1)c1c(/N=C/c2c(O)ccc3ccccc23)sc2c1CCCC2 [JGB1741]		9.247	
Clc1ccc(N/N=C(\c2ccccc2)c2ccccn2)nc1 [JIB-04]	13.4 POC and 8.34 POC		
Nc1nc(Nc2ccc(S(N)(=O)=O)cc2)nn1C(=O)c1c(F)cccc1F [JNJ-7706621]		−15.24	
Cn1cc(CNCC2CCN(c3ncc(C(=O)NO)cn3)CC2)c2ccccc21 [JNJ-26481585]	38.34 POC and 26.25 POC		
COc1ccc(C2(CNC(=O)c3ccc(NC(=O)c4ccco4)cc3)CCOCC2)cc1 [JW 55]		−6.598	
O=S(=O)(NCCSSCCNS(=O)(=O)c1cc(Cl)ccc1Cl)c1cc(Cl)ccc1Cl [KC7F2]		−3.553	
CC(=O)SCC(=O)c1ccc(NS(=O)(=O)c2ccc(OCCCN(C)C)cc2)nc1 [KD 5170]		12.43	
O=C(c1ccc(/C=C/c2n[nH]c3ccccc23)cc1)N1CCNCC1 [KW 2449]		6.231	
COc1ccc(S(=O)(=O)ON=C2C=C(C)C(=O)C(C)=C2)cc1 [L002]		−39.83	
C[S+]([O-])CCCCN=C=S [L-Sulforaphane]	−5.74 POC		
O=C(O)CC[C@H](O)C(=O)O [L-a-Hydroxyglutaric Acid]		−7.873	
O=C(/C=C/c1ccc(CN(CCO)CCc2c[nH]c3ccccc23)cc1)NO [LAQ824, Dacinostat]	43.86 POC		Non Amp - AMP (POC) 10 uM (10 uM, 48 hrs, average relative cell viability (vs 1% DMSO) of non-amplified cells (OVSAHO, CAOV3) minus that of MYC-HSF1 amplified cells (OVCAR8, OVCAR4), positive = greater response in amplified cells, listed as LAQ824 (NVP-LAQ824, Dacinostat), 10 µM): 28.82 POC
C/C(O)=C(\C#N)C(=O)Nc1cc(Br)ccc1Br [LFM-A13]			Non Amp - AMP (POC) 10 uM: 5.442 POC
Cc1cn(CCN2CCN(c3ccccc3-c3cc(C#N)cc(C(=O)NCCCN4CCCC4)c3)CC2)c2ccccc12 [LLY507]		−14.82	
Cc1cc(C)cc(C(=O)NOCCCCCC(=O)NO)c1 [LMK 235]	44.96 POC and 34.77 POC		
Cc1cc(Nc2cc(CN3CCOCC3)c3nc(C)c(Cc4ccc(Cl)cc4F)n3n2)n[nH]1 [LY2784544]		−1.068	
CC(C)OC(=O)CCC/C=C\C[C@@H]1[C@@H](CC[C@@H](O)CCc2ccccc2)[C@H](O)C[C@@H]1O [Latanoprost]		−8.842	
Nc1nc(OCc2cc(Br)cs2)c2[nH]cnc2n1 [Lomeguatrib]		9.851	
CN(C)c1ccc(C(=O)NCCCCCCC(=O)NO)cc1 [M344]		22.65	
Cn1c(/C=C/C(=O)NO)ccc1/C=C/C(=O)c1cccc(F)c1 [MC 1568]	−4.947 POC		Non Amp - AMP (POC) 10 uM (10 uM, 48 hrs, average relative cell viability (vs 1% DMSO) of non-amplified cells (OVSAHO, CAOV3) minus that of MYC-HSF1 amplified cells (OVCAR8, OVCAR4), positive = greater response in amplified cells, listed as MC1568, 10 µM): −17.78 POC
CCC1C/C(=C\c2cccnc2)C(=O)/C(=C/c2cccnc2)C1 (centres unmarked) [MCB-613]		−5.355	
